Reference: the NIST ThermoML archive (doi:10.1016/j.jct.2016.10.023)

Assay: xn = mol fraction of the nth substance listed
Conditions: Constant-volume piezometry

CCCCC [pentane] + CCCO
Conditions | mass density [kg/m3]
543.15 K, 9051 kPa, Fluid (supercritical or subcritical phases), x1 = 0.2 | 378.24
543.15 K, 9246 kPa, Fluid (supercritical or subcritical phases), x1 = 0.8 | 288.09
543.15 K, 9255 kPa, Fluid (supercritical or subcritical phases), x1 = 0.2 | 383.04
543.15 K, 9409 kPa, Fluid (supercritical or subcritical phases), x1 = 0.9 | 301.38
543.15 K, 9589 kPa, Fluid (supercritical or subcritical phases), x1 = 0.2 | 390.87
543.15 K, 9630 kPa, Fluid (supercritical or subcritical phases), x1 = 0.8 | 298.89
543.15 K, 9923 kPa, Fluid (supercritical or subcritical phases), x1 = 0.9 | 312.01
543.15 K, 10354 kPa, Fluid (supercritical or subcritical phases), x1 = 0.8 | 315.05
543.15 K, 11098 kPa, Fluid (supercritical or subcritical phases), x1 = 0.9 | 333.7
543.15 K, 11177 kPa, Fluid (supercritical or subcritical phases), x1 = 0.2 | 418.27
543.15 K, 11295 kPa, Fluid (supercritical or subcritical phases), x1 = 0.8 | 333.52
543.15 K, 11953 kPa, Fluid (supercritical or subcritical phases), x1 = 0.8 | 345.03
543.15 K, 12737 kPa, Fluid (supercritical or subcritical phases), x1 = 0.9 | 353.77
543.15 K, 13394 kPa, Fluid (supercritical or subcritical phases), x1 = 0.8 | 361.57
543.15 K, 15943 kPa, Fluid (supercritical or subcritical phases), x1 = 0.2 | 469.86
543.15 K, 19097 kPa, Fluid (supercritical or subcritical phases), x1 = 0.9 | 406.88
543.15 K, 19983 kPa, Fluid (supercritical or subcritical phases), x1 = 0.8 | 417.78
543.15 K, 22804 kPa, Fluid (supercritical or subcritical phases), x1 = 0.2 | 509.01
543.15 K, 31784 kPa, Fluid (supercritical or subcritical phases), x1 = 0.8 | 466.21
543.15 K, 33595 kPa, Fluid (supercritical or subcritical phases), x1 = 0.2 | 546.39
543.15 K, 42744 kPa, Fluid (supercritical or subcritical phases), x1 = 0.8 | 495.57
543.15 K, 49093 kPa, Fluid (supercritical or subcritical phases), x1 = 0.2 | 580.61
553.15 K, 1401 kPa, Gas, x1 = 0.8 | 22.49
553.15 K, 1675 kPa, Gas, x1 = 0.2 | 24.89
553.15 K, 2144 kPa, Gas, x1 = 0.8 | 36.64
553.15 K, 3159 kPa, Gas, x1 = 0.8 | 58.33
553.15 K, 3511 kPa, Gas, x1 = 0.2 | 52.93
553.15 K, 3789 kPa, Gas, x1 = 0.8 | 73.69
553.15 K, 4048 kPa, Fluid (supercritical or subcritical phases), x1 = 0.9 | 83.26
553.15 K, 4680 kPa, Gas, x1 = 0.2 | 91.28
553.15 K, 4938 kPa, Fluid (supercritical or subcritical phases), x1 = 0.8 | 106.25
553.15 K, 5296 kPa, Fluid (supercritical or subcritical phases), x1 = 0.9 | 123.17
553.15 K, 5319 kPa, Fluid (supercritical or subcritical phases), x1 = 0.2 | 114.19
553.15 K, 5611 kPa, Fluid (supercritical or subcritical phases), x1 = 0.9 | 133.93
553.15 K, 6054 kPa, Fluid (supercritical or subcritical phases), x1 = 0.8 | 140.1
553.15 K, 6100 kPa, Fluid (supercritical or subcritical phases), x1 = 0.2 | 150.13
553.15 K, 6344 kPa, Fluid (supercritical or subcritical phases), x1 = 0.9 | 163.72
553.15 K, 6388 kPa, Fluid (supercritical or subcritical phases), x1 = 0.8 | 155.82
553.15 K, 6521 kPa, Fluid (supercritical or subcritical phases), x1 = 0.2 | 175.35
553.15 K, 6714 kPa, Fluid (supercritical or subcritical phases), x1 = 0.2 | 189.36
553.15 K, 6741 kPa, Fluid (supercritical or subcritical phases), x1 = 0.8 | 169.54
553.15 K, 6874 kPa, Fluid (supercritical or subcritical phases), x1 = 0.8 | 175.77
553.15 K, 6982 kPa, Fluid (supercritical or subcritical phases), x1 = 0.9 | 189.18
553.15 K, 6985 kPa, Fluid (supercritical or subcritical phases), x1 = 0.8 | 180.56
553.15 K, 7102 kPa, Fluid (supercritical or subcritical phases), x1 = 0.2 | 219.77
553.15 K, 7277 kPa, Fluid (supercritical or subcritical phases), x1 = 0.9 | 202.08
553.15 K, 7296 kPa, Fluid (supercritical or subcritical phases), x1 = 0.8 | 192.88
553.15 K, 7439 kPa, Fluid (supercritical or subcritical phases), x1 = 0.2 | 245.11
553.15 K, 7620 kPa, Fluid (supercritical or subcritical phases), x1 = 0.2 | 258.81
553.15 K, 7669 kPa, Fluid (supercritical or subcritical phases), x1 = 0.2 | 262.51
553.15 K, 7760 kPa, Fluid (supercritical or subcritical phases), x1 = 0.9 | 220.36
553.15 K, 7786 kPa, Fluid (supercritical or subcritical phases), x1 = 0.8 | 213.54
553.15 K, 7792 kPa, Fluid (supercritical or subcritical phases), x1 = 0.2 | 271.95
553.15 K, 7945 kPa, Fluid (supercritical or subcritical phases), x1 = 0.8 | 219.29
553.15 K, 8057 kPa, Fluid (supercritical or subcritical phases), x1 = 0.2 | 290.1
553.15 K, 8082 kPa, Fluid (supercritical or subcritical phases), x1 = 0.9 | 232.72
553.15 K, 8169 kPa, Fluid (supercritical or subcritical phases), x1 = 0.9 | 236.18
553.15 K, 8267 kPa, Fluid (supercritical or subcritical phases), x1 = 0.9 | 240.57
553.15 K, 8315 kPa, Fluid (supercritical or subcritical phases), x1 = 0.8 | 234.36
553.15 K, 8323 kPa, Fluid (supercritical or subcritical phases), x1 = 0.2 | 306.36
553.15 K, 8361 kPa, Fluid (supercritical or subcritical phases), x1 = 0.9 | 243.88
553.15 K, 8384 kPa, Fluid (supercritical or subcritical phases), x1 = 0.2 | 310.58
553.15 K, 8538 kPa, Fluid (supercritical or subcritical phases), x1 = 0.2 | 318.29
553.15 K, 8586 kPa, Fluid (supercritical or subcritical phases), x1 = 0.8 | 244.98
553.15 K, 8982 kPa, Fluid (supercritical or subcritical phases), x1 = 0.8 | 258.18
553.15 K, 9164 kPa, Fluid (supercritical or subcritical phases), x1 = 0.2 | 340.74
553.15 K, 9236 kPa, Fluid (supercritical or subcritical phases), x1 = 0.2 | 343.52
553.15 K, 9433 kPa, Fluid (supercritical or subcritical phases), x1 = 0.8 | 272.13
553.15 K, 9589 kPa, Fluid (supercritical or subcritical phases), x1 = 0.9 | 281.59
553.15 K, 10042 kPa, Fluid (supercritical or subcritical phases), x1 = 0.8 | 287.95
553.15 K, 10274 kPa, Fluid (supercritical or subcritical phases), x1 = 0.9 | 301.23
553.15 K, 10469 kPa, Fluid (supercritical or subcritical phases), x1 = 0.8 | 298.75
553.15 K, 10491 kPa, Fluid (supercritical or subcritical phases), x1 = 0.2 | 378.05
553.15 K, 10735 kPa, Fluid (supercritical or subcritical phases), x1 = 0.2 | 382.84
